In patent US4808521A, “Double-labeled enzymeimmunoassay methods” (priority 1985, dated 1989):

Target: β-galactosidase (Escherichia coli, UniProt P00722)
Test: Kinetics of β-galactosidase hydrolysis of p-NPBG and its inhibition by diethanolamine
Assay type: biochemical
Settings: about 1M diethanolamine, pH 8.6, normal p-NPBG concentrations (up to approximately 5mM)
Protocol: β-galactosidase has a pH optimum of 7.4 for p-nitrophenyl-β-D-galactoside (p-NPBG), although in a single assay format using normal substrate concentrations (up to approximately 5mM), the pH can be raised to 8.6 with only a slight loss (approximately 20%) of activity.

β-galactosidase, sequence (P00722 2-1024): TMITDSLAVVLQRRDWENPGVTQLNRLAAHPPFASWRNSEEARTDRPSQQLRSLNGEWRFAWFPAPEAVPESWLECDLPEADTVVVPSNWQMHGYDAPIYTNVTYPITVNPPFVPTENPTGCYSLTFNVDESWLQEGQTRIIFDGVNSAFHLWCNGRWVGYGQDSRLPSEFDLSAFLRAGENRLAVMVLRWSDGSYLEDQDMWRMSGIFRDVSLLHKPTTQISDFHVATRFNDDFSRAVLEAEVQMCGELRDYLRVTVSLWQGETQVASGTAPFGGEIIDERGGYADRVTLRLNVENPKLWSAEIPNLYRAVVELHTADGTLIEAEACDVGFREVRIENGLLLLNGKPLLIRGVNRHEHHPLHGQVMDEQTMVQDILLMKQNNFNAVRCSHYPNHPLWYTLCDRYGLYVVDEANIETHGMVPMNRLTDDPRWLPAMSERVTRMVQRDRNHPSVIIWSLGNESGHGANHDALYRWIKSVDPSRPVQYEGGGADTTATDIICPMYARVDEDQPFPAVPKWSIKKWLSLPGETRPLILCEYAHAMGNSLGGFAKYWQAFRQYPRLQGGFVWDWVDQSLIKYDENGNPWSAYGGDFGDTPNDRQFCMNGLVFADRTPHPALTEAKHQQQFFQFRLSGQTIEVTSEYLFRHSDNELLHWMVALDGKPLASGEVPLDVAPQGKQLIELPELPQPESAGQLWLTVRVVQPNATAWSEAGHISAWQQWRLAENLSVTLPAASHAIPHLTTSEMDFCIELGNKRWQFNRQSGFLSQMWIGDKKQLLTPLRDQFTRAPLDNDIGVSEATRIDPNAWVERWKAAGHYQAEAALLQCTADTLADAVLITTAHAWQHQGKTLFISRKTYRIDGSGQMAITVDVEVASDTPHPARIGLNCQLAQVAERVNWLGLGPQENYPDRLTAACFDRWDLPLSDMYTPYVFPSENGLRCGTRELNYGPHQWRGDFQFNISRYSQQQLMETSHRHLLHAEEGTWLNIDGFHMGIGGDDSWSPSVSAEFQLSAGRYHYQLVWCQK

OCCNCCO [diethanolamine]
activity of β-galactosidase in the presence of diethanolamine: almost totally abolished
